Here are results for 7 compounds from PMC6337391 (Molecules, 2019).

pIC50: −log10 of the molar value. Read-outs that look alike come from different tables or passages of the source.

On the set-up of data set [1]: method as in PMID 25798685. Conditions: DPPH, cited from earlier work.
Details of data set [2]: method as in PMID 25798685. Conditions: RP-TLC, methanol/water 70/30, SD < 10%; cited from earlier work.
The target in data set [3] is acetyl-cholinesterase (AChE) (Electrophorus electricus, UniProt O42275). As to conditions: cited from earlier work.
Sequence of acetyl-cholinesterase (AChE) (O42275 24-633): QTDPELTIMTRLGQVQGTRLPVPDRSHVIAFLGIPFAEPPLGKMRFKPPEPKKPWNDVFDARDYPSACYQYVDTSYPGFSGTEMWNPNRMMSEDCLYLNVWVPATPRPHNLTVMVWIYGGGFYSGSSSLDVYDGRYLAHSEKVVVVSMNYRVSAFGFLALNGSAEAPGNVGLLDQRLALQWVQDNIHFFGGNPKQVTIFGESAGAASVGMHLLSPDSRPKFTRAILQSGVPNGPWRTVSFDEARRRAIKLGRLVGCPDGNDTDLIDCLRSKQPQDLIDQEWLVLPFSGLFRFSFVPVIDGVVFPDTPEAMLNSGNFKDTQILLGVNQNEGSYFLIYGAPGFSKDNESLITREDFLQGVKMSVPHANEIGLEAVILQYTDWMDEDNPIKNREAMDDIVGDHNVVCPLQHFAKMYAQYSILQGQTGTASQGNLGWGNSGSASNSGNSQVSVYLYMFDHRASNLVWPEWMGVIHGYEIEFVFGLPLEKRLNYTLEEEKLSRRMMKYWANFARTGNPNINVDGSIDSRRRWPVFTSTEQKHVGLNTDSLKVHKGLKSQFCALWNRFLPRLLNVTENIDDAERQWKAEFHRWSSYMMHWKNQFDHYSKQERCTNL
Data set [4] relates to L929 mouse fibroblasts cells. Also on record: method as in PMID 25798685. Conditions: 24-h incubation, cited from earlier work.
Details of data set [5]: method as in PMID 25798685. Conditions: cited from earlier work.
Data set [6] addresses T1, soybean lipoxygenase (Glycine max, UniProt P08170).
T1 sequence (P08170 1-839): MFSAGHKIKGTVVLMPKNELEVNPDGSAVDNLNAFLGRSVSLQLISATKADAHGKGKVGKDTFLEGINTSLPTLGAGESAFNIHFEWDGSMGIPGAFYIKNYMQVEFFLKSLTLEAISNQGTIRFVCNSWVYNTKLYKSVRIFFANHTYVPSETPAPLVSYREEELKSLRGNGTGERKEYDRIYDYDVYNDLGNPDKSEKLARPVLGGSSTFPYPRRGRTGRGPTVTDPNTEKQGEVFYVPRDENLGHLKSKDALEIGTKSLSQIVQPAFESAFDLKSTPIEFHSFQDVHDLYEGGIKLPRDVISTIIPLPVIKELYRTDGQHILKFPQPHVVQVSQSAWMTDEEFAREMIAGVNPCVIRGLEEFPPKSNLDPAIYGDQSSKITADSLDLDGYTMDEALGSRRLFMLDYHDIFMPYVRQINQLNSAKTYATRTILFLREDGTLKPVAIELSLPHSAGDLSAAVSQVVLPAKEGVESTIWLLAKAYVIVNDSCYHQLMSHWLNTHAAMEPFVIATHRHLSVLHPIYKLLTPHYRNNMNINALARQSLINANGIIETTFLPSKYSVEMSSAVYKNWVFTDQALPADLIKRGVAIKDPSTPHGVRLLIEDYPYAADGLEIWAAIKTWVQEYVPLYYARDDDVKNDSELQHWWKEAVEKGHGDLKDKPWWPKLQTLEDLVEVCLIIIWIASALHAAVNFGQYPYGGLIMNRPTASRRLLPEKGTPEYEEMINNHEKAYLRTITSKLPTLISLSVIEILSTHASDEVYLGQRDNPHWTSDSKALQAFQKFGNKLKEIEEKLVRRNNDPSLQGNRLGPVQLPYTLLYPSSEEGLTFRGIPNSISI
Also on record: method as in PMID 25798685. As to conditions: 100 μM; cited from earlier work.

The nature of data set [7]: ABTS•+ decolorization assay. Summed up: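 Compounds (10 mM DMSO stocks, diluted) added to ABTS•+ radical generated by potassium persulfate oxidation of ABTS. Decolorization followed as absorbance at room temperature, with Trolox as standard.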
Data set [8] can be described thus: Inhibition of linoleic acid lipid peroxidation (AAPH). The essentials: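 Sodium linoleate oxidation was initiated by AAPH in 0.05 M phosphate buffer, pH 7.4, at 37 °C, with test compound present and DMSO as blank. Conjugated diene hydroperoxide formation was followed as the absorbance increase at 234 nm.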
Data set [9] concerns L929 mouse fibroblasts cells. Nature of the data set: Cytotoxicity, propidium iodide fluorescence method. The data set is classed as cell-based. As to conditions: 24-h incubation. Here is the method: The cytotoxicity of the synthesized derivatives against L929 mouse fibroblasts cells was determined using the propidium iodide (PI) fluorescence method in the presence of different concentrations (1–100 μM) of these compounds. The results are presented in Table 4 in the form of the % cell survival values as PI% for the examined compounds. […] Chalcones c7, c8, c11, and c12 follow.
L929 mouse fibroblasts cells were cultured in EMEM supplemented with 10% horse serum, 2 mM L-glutamine, 1 mM sodium pyruvate, 0.1 mM nonessential amino acids, 1.5 g/L sodium bicarbonate, and 100 μg/mL penicillin–streptomycin at 37 °C in a humidified atmosphere with 5% CO2. L929 cells were plated into 24-well plates at a density […] and allowed to attach and grow for 24 h. The supernatant in each well then replaced with medium containing various concentrations (1, 10, 20, 50 and 100 μM) of compounds a5–12, c5–12, di, and dii–dvi, which presented the more interesting results in the in vitro experiments. After 24-h incubation, the supernatant was removed and the cells were washed with PBS. The cells were detached with 0.25% trypsin, transferred to FACS tubes, and then centrifuged (1600 rpm for 5 min) and the pellet washed with PBS. After washing, the cells in the pellet were incubated with 5 μL propidium iodide (PI) solution (1 mg/mL) for 1 min. The PI fluorescence (cell death) was determined with flow cytometry, FACS Calibur, Coulter Epics XL-MCL (Beckman, Inc., Mount Holly, NJ, USA). The analysis of flow cytometry data was performed with the WinMDI analysis program (Table 4).

Data set [10] in a line: Reducing activity with the stable radical DPPH. The essentials:
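DPPH (final 0.05 mM) in absolute ethanol mixed with an equal volume of compound at 0.05 or 0.1 mM, ethanol as control. Absorbance at 517 nm read at room temperature after 20 and 60 min, expressed as reducing activity RA%.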

Data set [11] is described as follows: Lipophilicity as RM values by RP-TLC. Conditions: methanol/water 70/30, SD < 10%. Also on record: key: RM = log[(1/Rf) − 1]. The format is physicochemical. The essentials: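 Reversed-phase TLC on silica gel plates impregnated with 5% (v/v) liquid paraffin, methanol/water 70/30 (v/v) mobile phase, saturated tanks at 24 °C, UV detection. RM = log[(1/Rf) − 1] from five Rf measurements.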

Data set [12] concerns the target T1, soybean lipoxygenase. Nature of the data set: biochemical. The format is biochemical. Conditions: soybean LOX. The essentials: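 Soybean LOX (enzyme solution 1/9 × 10^−4 w/v in saline) incubated at room temperature with sodium linoleate ([…]) in tris buffer pH 9. Compounds added from DMSO stocks. IC50 derived from several concentrations.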

On to `O=C(/C=C/c1cccc2ccccc12)c1ccc(O)cc1` [a4, (E)-1-(4-hydroxyphenyl)-3-(naphthalen-1-yl) prop-2-en-1-one], for which the “RA% 100 μM 20 min” value in data set [1] (20 min) is recorded as 7%. In [1] (60 min), the “RA% 100 μM 60 min” value is listed as 3%. For the same compound, in [2], the RM was −0.26. Further, the “% AChE Inhb. @ 100 μM” value in [3] is recorded as 25%. For the same compound, the “1 μM Average (% pi) ± σ” value in data set [4] (1 μM) is recorded as 8.5 ± 2.1%. In data set [4] (10 μM), the “10 μM Average (% pi) ± σ” value was 12 ± 4.2%. The “20 μM Average (% pi) ± σ” value in [4] (20 μM) is 29.5 ± 0.6%. The “50 μM Average (% pi) ± σ” value in data set [4] (50 μM) was 51 ± 9.9%. In addition, the “100 μM Average (% pi) ± σ” value in [4] (100 μM) is 51 ± 9.9%. Moreover, the “ABTS•+ Inhb. % @ 100 μM” value in data set [5] is “No”. In addition, at soybean lipoxygenase [6], the “% LOX Inhb. @ 100 μM” value is 44%.
As for `CC(/C=C/C(=O)c1ccc(O)cc1)=C\c1ccccc1` [a8, (2E,4E)-1-(4-hydroxyphenyl)-4-methyl-5-phenylpenta-2,4-dien-1-one], in data set [7], the “ABTS•+ Inhb. % @ 100 μM” value is “No”. In [8], the “AAPH% @ 100 μM (anti-lipid peroxidation)” value is 32%. In addition, in data set [9], the “1 μM Average (% pi) ± σ” value is given as 1.39 ± 0.1%, the “10 μM Average (% pi) ± σ” value is 2.95 ± 1.23%, the “20 μM Average (% pi) ± σ” value is reported as 1.84 ± 2.05% and the “50 μM Average (% pi) ± σ” value is given as 8.15 ± 0.34%. In addition, in [9], the “100 μM Average (% pi) ± σ” value was found to be 8.15 ± 0.34%. Also, in data set [10], the “RA% 100 μM 20 min” value worked out at 6% and the “RA% 100 μM 60 min” value came to 2%. The RM in data set [11] is recorded as −0.68. At soybean lipoxygenase [12], the “% LOX Inhb. @ 100 μM” value was 14%.
`Cc1ccc(/C=C/C(=O)c2ccc(O)cc2)o1` [a12, (E)-1-(4-hydroxyphenyl)-3-(5-methylfuran-2-yl) prop-2-en-1-one]: the “ABTS•+ Inhb. % @ 100 μM” value in data set [7] was 6%. For the same compound, the “AAPH% @ 100 μM (anti-lipid peroxidation)” value in data set [8] was 45%. Besides, in data set [9], the “1 μM Average (% pi) ± σ” value was determined as 0.88 ± 0.31%, the “10 μM Average (% pi) ± σ” value amounted to 3.25± 2.11%, the “20 μM Average (% pi) ± σ” value is listed as 8.12 ± 0.32% and the “50 μM Average (% pi) ± σ” value stood at 63.54 ± 6.16%. Moreover, the “100 μM Average (% pi) ± σ” value in data set [9] is given as 63.54 ± 6.16%. In data set [10], the “RA% 100 μM 20 min” value was 24% and the “RA% 100 μM 60 min” value is on record as 9%. In [11], this compound showed an RM of −0.81. For the same compound, at soybean lipoxygenase [12], the “% LOX Inhb. @ 100 μM” value was 2%.
Consider `CC(/C=C/C(=O)c1ccc(OCCCOc2ccc(C(=O)/C=C/C(C)=C/c3ccccc3)cc2)cc1)=C\c1ccccc1` [c8, (2E,2′E,4E,4′E)-1,1′-((propane-1,3-diylbis(oxy))bis(4,1-phenylene))bis(4-methyl-5-phenylpenta-2,4-dien-1-one)], for which the “ABTS•+ Inhb. % @ 100 μM” value in data set [7] is “No”. Moreover, the “AAPH% @ 100 μM (anti-lipid peroxidation)” value in data set [8] worked out at 75%. In data set [9], the “1 μM Average (% pi) ± σ” value turned out to be 35.72 ± 10.23%, the “10 μM Average (% pi) ± σ” value is 29.05 ± 9.62%, the “20 μM Average (% pi) ± σ” value was 35.69 ± 5.85% and the “50 μM Average (% pi) ± σ” value amounted to 38.7 ± 4.96%. Moreover, the “100 μM Average (% pi) ± σ” value in data set [9] was found to be 38.7 ± 4.96%. In [10], the “RA% 100 μM 20 min” value is recorded as “No” and the “RA% 100 μM 60 min” value is “no”. In addition, the RM in data set [11] is listed as −0.85. On soybean lipoxygenase [12], the “% LOX Inhb. @ 100 μM” value is 26.5%.
`O=C(/C=C/c1ccco1)c1ccc(OCCCOc2ccc(C(=O)/C=C/c3ccco3)cc2)cc1` [c10, (2E,2′E)-1,1′-((propane-1,3-diylbis(oxy))bis(4,1-phenylene))bis(3-(furan-2-yl)prop-2-en-1-one)]: the “ABTS•+ Inhb. % @ 100 μM” value in data set [7] was determined as 11%. Besides, in data set [8], the “AAPH% @ 100 μM (anti-lipid peroxidation)” value is given as 77%. Further, in data set [9], the “1 μM Average (% pi) ± σ” value is on record as 18.10 ± 11.82%, the “10 μM Average (% pi) ± σ” value stood at 13.48 ± 10.36%, the “20 μM Average (% pi) ± σ” value amounted to 25.93 ± 9.73% and the “50 μM Average (% pi) ± σ” value was found to be 32.11 ± 9.38%. In addition, in [9], the “100 μM Average (% pi) ± σ” value is 32.11 ± 9.38%. Further, in [10], the “RA% 100 μM 20 min” value is reported as “No” and the “RA% 100 μM 60 min” value is listed as “no”. Also, the RM in [11] came out at 0.7. For the same compound, the “% LOX Inhb. @ 100 μM” value on soybean lipoxygenase [12] was found to be 57%. Besides, the negative-log IC50 (pIC50) on soybean lipoxygenase [12] (read-out: LOX IC50) was 4.07.
`O=C(/C=C/c1cccs1)c1ccc(OCCCOc2ccc(C(=O)/C=C/c3cccs3)cc2)cc1` [c5, (2E,2′E)-1,1′-((propane-1,3-diylbis-(oxy))bis-(4,1-phenylene)) bis-(3-(thiophen-2-yl)prop-2-en-1-one)]: the “ABTS•+ Inhb. % @ 100 μM” value in data set [7] is on record as “No”. Also, the “AAPH% @ 100 μM (anti-lipid peroxidation)” value in [8] came out at 46%. Also, in data set [9], the “1 μM Average (% pi) ± σ” value is 0.32 ± 0.45%, the “10 μM Average (% pi) ± σ” value is on record as 0.97 ± 0.2%, the “20 μM Average (% pi) ± σ” value was found to be 3.02 ± 1.36% and the “50 μM Average (% pi) ± σ” value is given as 7.26 ± 0.3%. For the same compound, the “100 μM Average (% pi) ± σ” value in [9] is 7.26 ± 0.3%. Further, in data set [10], the “RA% 100 μM 20 min” value is “No” and the “RA% 100 μM 60 min” value is “no”. The compound also registered an RM in data set [11] of 0.43. Further, on soybean lipoxygenase [12], the “% LOX Inhb. @ 100 μM” value came out at 32%.
As for `O=C(/C=C/C(Br)=C\c1ccccc1)c1ccc(OCCCOc2ccc(C(=O)/C=C/C(Br)=C\c3ccccc3)cc2)cc1` [c9, (2E,2′E,4E,4′E)-1,1′-((propane-1,3-diylbis(oxy))bis(4,1-phenylene))bis(4-bromo-5-phenylpenta-2,4-dien-1-one)], in [7], the “ABTS•+ Inhb. % @ 100 μM” value is listed as “No”. Besides, in data set [8], the “AAPH% @ 100 μM (anti-lipid peroxidation)” value is 32%. In addition, in data set [9], the “1 μM Average (% pi) ± σ” value came to 12.5 ± 10.31%, the “10 μM Average (% pi) ± σ” value worked out at 15.88 ± 6.31%, the “20 μM Average (% pi) ± σ” value stood at 28.76 ± 2.74% and the “50 μM Average (% pi) ± σ” value was 29.53 ± 6.87%. Besides, the “100 μM Average (% pi) ± σ” value in data set [9] was determined as 29.53 ± 6.87%. For the same compound, in data set [10], the “RA% 100 μM 20 min” value is on record as “No” and the “RA% 100 μM 60 min” value is given as “no”. Also, the RM in data set [11] is −0.86. Also, the “% LOX Inhb. @ 100 μM” value on soybean lipoxygenase [12] came to 24.5%.
